Assay results published in US11752140B2, “Compositions comprising substituted benzofuroquinolizine and psychoactive drug” (VETCARE OY, priority 2016, dated 2023).

Assays:
dogs [1] = conditions: medetomidine 20 μg/kg IM or 10 μg/kg IV alone (Rolfe 2012); cited from earlier work
[2] = Plasma concentrations of butorphanol and midazolam in dogs after IM administration of composition with or without MK-467; conditions: for Peak plasma concentration / Time at which peak plasma concentration was reached from the IM administration: IM
Experimental: Plasma Concentrations of Butorphanol and Midazolam in Dogs after IM Administration of a Composition Comprising MK-467, Butorphanol, Midazolam and Medetomidine, Compared with Composition without MK-467
A liquid aqueous composition comprising MK-467, butorphanol tartrate, midazolam and medetomidine was administered to a dog intramuscularly (IM) to provide a dosage of MK-467 500 μg/kg, butorphanol 100 μg/kg, midazolam 200 μg/kg and medetomidine 20 μg/kg.
Five purpose-bred, adult beagles were used for this study.
Study design: A prospective, randomized, experimental cross-over study.
Each dog was treated for two times with a 14-day wash-out period:
Treatment 1. medetomidine (20 μg/kg)+butorphanol (100 μg/kg)+midazolam (0.2 mg/kg)
Treatment 2. medetomidine (20 μg/kg)+MK-467 (MK) (500 μg/kg)+butorphanol (100 μg/kg)+midazolam (0.2 mg/kg).
For treatment 1. 1 mL of medetomidine (Dorbene 1 mg/mL) was diluted with 1 mL of saline. For treatment 2. 25 mg of MK-467 was mixed with 1 mL of medetomidine, and 1 mL of saline was added. The mixture, butorphanol (Torpudor 10 mg/mL) and midazolam (Midazolam Hameln 5 mg/mL) were aspirated into a single syringe. The end volume of the injectable in both treatments was 0.09 mL/kg.
Dog was positioned laterally and the drugs were injected IM into the epaxial muscle. Central venous blood was sampled into EDTA-tubes at 0, 3, 6, 10, 15, 20, 25, 30, 40, 50, 60 and 90 minutes after drug administration. The plasma concentrations were analyzed with LC/MS/MS for plasma concentrations of dexmedetomidine, midazolam and butorphanol.

dogs [3] = conditions: MK-467 250, 500, 750 μg/kg with dexmedetomidine 10 μg/kg IV (Restitutti 2011); cited from earlier work
[4] = in the presence of MK-467 500 μg/kg, with medetomidine 20 μg/kg, butorphanol 100 μg/kg, midazolam 200 μg/kg in the same syringe
[5] = without MK-467, medetomidine, butorphanol, midazolam in the same syringe
[6] = parenteral extravascular administration, composition with MK-467

| SMILES | Heart rate, Pvo(2) and cardiac index compared with baseline (dogs [1]) | MAP, SVR and oxygen extraction ratio compared with baseline (dogs [1]) | Peak plasma concentration [2, 4] [ng/mL] | Time at which peak plasma concentration was reached from the IM administration ([2]; with MK-467) [min] | Time at which peak plasma concentration was reached from the IM administration ([2]; without MK-467) [min] | Peak plasma concentration [2, 5] [ng/mL] | Time at which maximum plasma concentration was reached [2, 6] [min] | Time at which maximum plasma concentration was reached ([2]; without MK-467) [min] | Effect on bispectral index (BIS) values (dogs [3]) |
| --- | --- | --- | --- | --- | --- | --- | --- | --- | --- |
| Cc1cccc(C(C)c2cnc[nH]2)c1C (racemic) [medetomidine, (RS)-4-[1-(2,3-dimethylphenyl)ethyl]-3H-imidazole] | significantly lower | significantly higher | – | – | – | – | – | – | – |
| Cc1ncc2n1-c1ccc(Cl)cc1C(c1ccccc1F)=NC2 [midazolam] | – | – | 133 | ≤ 5 | ≤ 30 | 71 | 5 | 20 | – |
| Oc1ccc2c(c1)[C@@]13CCCC[C@@]1(O)[C@@H](C2)N(CC1CCC1)CC3 [butorphanol] | – | – | 17 | ≤ 10 | ≤ 30 | 11 | 10 | 30 | – |
| Cc1cccc([C@H](C)c2cnc[nH]2)c1C [Dexmedetomidine, (S)-4-[1-(2,3-Dimethylphenyl)ethyl]-3H-imidazole] | – | – | – | – | – | – | – | – | decreased BIS-values |
